Data on one compound can be found in US20230094545A1, “S1P RECEPTOR MODULATORS” (AKAAL PHARMA PTY LTD, priority 2020, published 2023).

Series [1] in a line: Systemic exposure and lymphopenia in mice. The class given is in vivo.
The test system of another series is Incision mediated pain. The series is described as follows: Deep incision wound mediated pain, topical treatment. The class given is in vivo, Sprague Dawley Rats. An excerpt: The total 24 female Sprague Dawley Rats were assigned to two test and two control groups having 6 animals per group. Animals from G1 and G2 received CFA on Day 1 by intraplanter route followed application of test item (0 and 3% respectively), onto injection site from Day 1 to Day 7. Group G3 and G4 animals received deep incision through the skin and fascia of the plantar foot followed by application of test item (0 and 3% respectively), onto the incision site from Day 1 to Day 7. Clinical signs, body weight and pain assessment parameters like Von Frey estimation and FOB was evaluated and the pain reduction results at Day 7 are summarized in Table 7.

In the case of `CCCOc1ccc(-c2nc(-c3ccc4oc(C(N)(CO)CO)cc4c3)no2)cc1Cl` [compound of formula (I)], the measured lymphopenia in series [1] (0.3 mg/kg, 6 hours post dose) was 40%. Also, in series [1] (dose of 0.3 mg/kg), the systemic exposure is listed as 6.36 ng/mL. Also, the “Pain reduction results at Day 7, Incision mediated pain” value with Incision mediated pain (3% (G4), Placebo (G3) 0.33) is 0.11. The compound also returned a pain relief in the series with Incision mediated pain (3% topical Day 1 to Day 7, day 7) of 67%.
